Experimental data published in PubChem BioAssay AID1963854 (Molecular Pharmacology Branch, DTP, NCI, 2024).

Test system: 186277-243-T-J2-PDC complex spheroid viability
Experiment: Anticancer human tumor 186277-243-T-J2-PDC patient-derived colon adenocarcinoma cell line growth inhibition [POLQ]
Conditions: for IC50: curve of first compound; for viability, T/C: stronger effect = lower value
Outline: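 Three-cell-type spheroids modelling solid tumor plus stroma served as the readout system; POL inhibitors were tested individually and in combination, concentration ranges set by clinical Cmax where known.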

[1] = second compound 0.0316 µM, first compound 0.0316 µM
[2] = second compound 0.0316 µM, first compound 0.1 µM
[3] = second compound 0.0316 µM, first compound 0.316 µM
[4] = second compound 0.0316 µM, first compound 1 µM
[5] = second compound 0.0316 µM, first compound 3.16 µM
[6] = second compound 0.0316 µM, first compound 10 µM
[7] = second compound 0.1 µM, first compound 0.0316 µM
[8] = second compound 0.1 µM, first compound 0.1 µM
[9] = second compound 0.1 µM, first compound 0.316 µM
[10] = second compound 0.1 µM, first compound 1 µM
[11] = second compound 0.1 µM, first compound 3.16 µM
[12] = second compound 0.1 µM, first compound 10 µM
[13] = second compound 0.316 µM, first compound 0.0316 µM
[14] = second compound 0.316 µM, first compound 0.1 µM
[15] = second compound 0.316 µM, first compound 0.316 µM
[16] = second compound 0.316 µM, first compound 1 µM
[17] = second compound 0.316 µM, first compound 3.16 µM
[18] = second compound 0.316 µM, first compound 10 µM
[19] = second compound 1 µM, first compound 0.0316 µM
[20] = second compound 1 µM, first compound 0.1 µM
[21] = second compound 1 µM, first compound 0.316 µM
[22] = second compound 1 µM, first compound 1 µM
[23] = second compound 1 µM, first compound 3.16 µM
[24] = second compound 1 µM, first compound 10 µM
[25] = second compound 3.16 µM, first compound 0.0316 µM
[26] = second compound 3.16 µM, first compound 0.1 µM
[27] = second compound 3.16 µM, first compound 0.316 µM
[28] = second compound 3.16 µM, first compound 1 µM
[29] = second compound 3.16 µM, first compound 3.16 µM
[30] = second compound 3.16 µM, first compound 10 µM
[31] = second compound 10 µM, first compound 0.0316 µM
[32] = second compound 10 µM, first compound 0.1 µM
[33] = second compound 10 µM, first compound 0.316 µM
[34] = second compound 10 µM, first compound 1 µM
[35] = second compound 10 µM, first compound 3.16 µM
[36] = second compound 10 µM, first compound 10 µM
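Also: spheroids exposed to compounds for seven days.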
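For viability, T/C in this document: 100% = DMSO vehicle control viability.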

## O=c1[nH]cc(F)c(=O)[nH]1 + Cc1cccc(N(C)C(=O)C2C(O)CCN2c2nc(C)cc(C(F)(F)F)c2C#N)c1
Second compound 0.0316 µM
  IC50: 9.4 µM
Second compound 0.1 µM
  IC50: > 10 µM
Second compound 0.316 µM
  IC50: 9.14 µM
Second compound 1 µM
  IC50: 9.77 µM
Second compound 3.16 µM
  IC50: > 10 µM
Second compound 10 µM
  IC50: 8.83 µM
[1]
  viability, T/C: 103%
[2]
  viability, T/C: 99.5%
[3]
  viability, T/C: 95.4%
[4]
  viability, T/C: 112%
[5]
  viability, T/C: 75.5%
[6]
  viability, T/C: 48.5%
[7]
  viability, T/C: 105%
[8]
  viability, T/C: 99.9%
[9]
  viability, T/C: 98.9%
[10]
  viability, T/C: 98.3%
[11]
  viability, T/C: 73.5%
[12]
  viability, T/C: 52.2%
[13]
  viability, T/C: 87.2%
[14]
  viability, T/C: 91.6%
[15]
  viability, T/C: 94.4%
[16]
  viability, T/C: 116%
[17]
  viability, T/C: 76.5%
[18]
  viability, T/C: 47.8%
[19]
  viability, T/C: 102%
[20]
  viability, T/C: 102%
[21]
  viability, T/C: 104%
[22]
  viability, T/C: 103%
[23]
  viability, T/C: 79.9%
[24]
  viability, T/C: 49.4%
[25]
  viability, T/C: 112%
[26]
  viability, T/C: 108%
[27]
  viability, T/C: 88.5%
[28]
  viability, T/C: 99.7%
[29]
  viability, T/C: 81.8%
[30]
  viability, T/C: 52.1%
[31]
  viability, T/C: 105%
[32]
  viability, T/C: 110%
[33]
  viability, T/C: 100%
[34]
  viability, T/C: 111%
[35]
  viability, T/C: 77.6%
[36]
  viability, T/C: 46.7%

## COc1cc2cc(C(=O)CCC(=O)O)sc2cc1OC + Nc1ccc(C#CCN(C(=O)Cc2ncc(C(F)(F)F)cc2C(F)(F)F)c2ccc(F)cc2)nn1
Second compound 0.0316 µM
  IC50: > 10 µM
Second compound 0.1 µM
  IC50: > 10 µM
Second compound 0.316 µM
  IC50: > 10 µM
Second compound 1 µM
  IC50: > 10 µM
Second compound 3.16 µM
  IC50: > 10 µM
Second compound 10 µM
  IC50: > 10 µM
[1]
  viability, T/C: 83.5%
[2]
  viability, T/C: 87.3%
[3]
  viability, T/C: 92.9%
[4]
  viability, T/C: 88.7%
[5]
  viability, T/C: 93.4%
[6]
  viability, T/C: 85.6%
[7]
  viability, T/C: 96.3%
[8]
  viability, T/C: 98.5%
[9]
  viability, T/C: 91%
[10]
  viability, T/C: 100%
[11]
  viability, T/C: 90.3%
[12]
  viability, T/C: 103%
[13]
  viability, T/C: 97.5%
[14]
  viability, T/C: 87.5%
[15]
  viability, T/C: 87%
[16]
  viability, T/C: 91.9%
[17]
  viability, T/C: 89.9%
[18]
  viability, T/C: 97.8%
[19]
  viability, T/C: 96.1%
[20]
  viability, T/C: 96.5%
[21]
  viability, T/C: 92.2%
[22]
  viability, T/C: 94.3%
[23]
  viability, T/C: 94.8%
[24]
  viability, T/C: 83.2%
[25]
  viability, T/C: 78.8%
[26]
  viability, T/C: 105%
[27]
  viability, T/C: 90%
[28]
  viability, T/C: 90.7%
[29]
  viability, T/C: 98.9%
[30]
  viability, T/C: 93.5%
[31]
  viability, T/C: 106%
[32]
  viability, T/C: 94.8%
[33]
  viability, T/C: 81.5%
[34]
  viability, T/C: 90%
[35]
  viability, T/C: 90.5%
[36]
  viability, T/C: 96.5%

## O=C(c1cc(Cc2n[nH]c(=O)c3ccccc23)ccc1F)N1CCN(C(=O)C2CC2)CC1 + Cc1cccc(N(C)C(=O)C2C(O)CCN2c2nc(C)cc(C(F)(F)F)c2C#N)c1
Second compound 0.0316 µM
  IC50: > 10 µM
Second compound 0.1 µM
  IC50: > 10 µM
Second compound 0.316 µM
  IC50: > 10 µM
Second compound 1 µM
  IC50: > 10 µM
Second compound 3.16 µM
  IC50: > 10 µM
Second compound 10 µM
  IC50: > 10 µM
[1]
  viability, T/C: 89.3%
[2]
  viability, T/C: 99.9%
[3]
  viability, T/C: 99.9%
[4]
  viability, T/C: 100%
[5]
  viability, T/C: 118%
[6]
  viability, T/C: 75.5%
[7]
  viability, T/C: 94%
[8]
  viability, T/C: 92.4%
[9]
  viability, T/C: 96.3%
[10]
  viability, T/C: 92.7%
[11]
  viability, T/C: 114%
[12]
  viability, T/C: 81.8%
[13]
  viability, T/C: 94.8%
[14]
  viability, T/C: 116%
[15]
  viability, T/C: 99.7%
[16]
  viability, T/C: 97%
[17]
  viability, T/C: 112%
[18]
  viability, T/C: 78.1%
[19]
  viability, T/C: 101%
[20]
  viability, T/C: 96.8%
[21]
  viability, T/C: 113%
[22]
  viability, T/C: 90.7%
[23]
  viability, T/C: 99.5%
[24]
  viability, T/C: 76.1%
[25]
  viability, T/C: 96.3%
[26]
  viability, T/C: 99%
[27]
  viability, T/C: 97.6%
[28]
  viability, T/C: 106%
[29]
  viability, T/C: 113%
[30]
  viability, T/C: 58.7%
[31]
  viability, T/C: 115%
[32]
  viability, T/C: 103%
[33]
  viability, T/C: 100%
[34]
  viability, T/C: 108%
[35]
  viability, T/C: 113%
[36]
  viability, T/C: 65.2%
